Source: patent publication US9243035B2, “Peptides effective in the treatment of conditions requiring the removal or destruction of cells” (NYMOX CORPORATION, priority 2013, dated 2016)
No end group written: not given here.

How the values were obtained:
[1] = system: tissue at sites of injection (liver, prostate, extremity skeletal muscle); assay: Injection of peptide into liver, prostate and extremity skeletal muscle of rats, histopathology and prostate volume at 72 hours; format: in vivo, Sprague-Dawley male rats; set-up: key to Histological Changes of Cell Death at 72 Hours: −: Absent; +: Present, Minimal; ++: Present, Moderate; +++: Present, Moderate and Diffuse; ++++: Present, Diffuse and Extensive; conditions: rat; for reduction in prostate volume compared to controls: 100 to 400 μL of 1 mg/mL in saline, sacrificed at 72 hours, average; for Histological Changes of Cell Death at 72 Hours: 72 hours after injection; for histopathological effect on tissue at sites of injection: liver, prostate, muscle, 72 hours
Procedure: After open laparotomy under general anesthesia, 8 normal 3 month old Sprague-Dawley male rats were injected in liver and in prostate, and in extremity skeletal muscle, with peptide NYMAP1385 in saline in quantities of 100 to 400 μL at a concentration of 1 mg/mL delivered from plastic syringes through stainless steel 26 gauge needles.
The individual foci of infiltration were excised, fixed in 10% formalin, embedded in paraffin, and stained and examined by standard histopathological methods. For each animal the entire prostate gland was embedded and sectioned. All stained sections were examined histologically and measured. For each prostate at least 4 histological sections were examined, and for each histological section two cross-sectional diameters (D) at 90° from each other were measured (total of ≧4 measurements per prostate). The mean diameter from these measurements for each prostate was used to estimate volume according to V=4/3*π(D/2)^3 […]
(§1) Histological changes were assessed on the following scale: −Absent • +Present, Minimal • ++Present, Moderate • +++Present, Moderate and Diffuse • ++++Present, Diffuse and Extensive

rat prostate = assay: Intraprostatic infusion of peptide in rats, histology and prostate volume after 7 days; format: in vivo, Sprague-Dawley rats; set-up: key to Histological Changes of Cell Death at 7 Days: −: Absent; +: Present, Minimal; ++: Present, Moderate; +++: Present, Moderate and Diffuse; ++++: Present, Diffuse and Extensive; conditions: for histological effect on prostate at sites of injection: rat prostate, 7 days; for Histological Changes of Cell Death at 7 Days / reduction in prostate volume compared to controls: rat; for Histological Changes of Cell Death at 7 Days: 7 days after intraprostatic injection; for reduction in prostate volume compared to controls: intraprostatic, 300 μl of 1 mg/mL in PBS pH 7.4, sacrificed after 7 days, average
Procedure: Seven normal male 300 gram weight Sprague-Dawley rats were given general anesthesia and given peptide NYMAP1385 by intraprostatic infusion. The injections consisted of 300 μl of peptide NYMAP1385 1 mg/mL in PBS pH 7.4. […] Rats were painlessly sacrificed after 7 days. Prostate glands were dissected, fixed in 10% buffered formalin for 24 hours, embedded in paraffin, sectioned, and stained with H & E. For each animal the entire prostate gland was embedded and sectioned. All stained sections were examined histologically. For each animal the entire prostate gland was embedded and sectioned. All stained sections were examined histologically and measured. For each prostate at least 2 histological sections were examined, and for each histological section two cross-sectional diameters (D) at 90° from each other were measured (total of ≧4 measurements per prostate). The mean diameter from these measurements for each prostate was used to estimate volume according to V=4/3*π*(D/2)^3
Eight normal male 300 gram Sprague-Dawley rats were injected in the prostate as in the above Example 2, except they were injected with peptide NYMAP13134. Rats were painlessly sacrificed after 7 days and their prostate glands were examined as in Example 2. For each animal the entire prostate gland was embedded and sectioned. All stained sections were examined histologically and measured. For each prostate at least 2 histological sections were examined, and for each histological section two cross-sectional diameters (D) at 90° from each other were measured (total of ≧4 measurements per prostate). The mean diameter from these measurements for each prostate was used to estimate volume according to V=4/3*π*(D/2)^3
as §1

Sequence	reduction in prostate volume compared to controls [1] [%]	Histological Changes of Cell Death at 72 Hours [1]	histopathological effect on tissue at sites of injection [1]	histological effect on prostate at sites of injection (rat prostate)	Histological Changes of Cell Death at 7 Days (rat prostate)	reduction in prostate volume compared to controls (rat prostate) [%]
FHDLKKHCIK [NYMAP13134]	72.5	+++	cell death and necrosis of tissue at the injection sites	significant cell loss and atrophy in the prostate	++++	75.2
IDLLQGRTRNRC [NYMAP1385]	57.8	++++	variable amounts of apoptosis and necrosis of tissue at the injection sites	necrosis of tissue at the injection sites with loss of glandular epithelium, flattening and atrophy	++	44.8
